pIC50: −log10 of the molar value. Counter-ions that a name gives are not always drawn.
Key:
[1] = molecular target: T1, rat somatostatin receptor protein subtype 4 (rSSTR4) (Rattus norvegicus, UniProt P30937); test: Binding inhibition of 125I-somatostatin-14, IC50, rat SSTR4 membrane fraction; details: 125I-somatostatin-14, rat SSTR4 CHO cell membrane fraction, 25° C., 60 minutes
T1 construct: expressed in transfected cells; host or cells: CHO (dhfr-) cells, strain rSSTR4-20-25

[2] = molecular target: human somatostatin receptor protein subtype 4 (hSSTR4); test: Binding inhibition of 125I-somatostatin-14, IC50, SSTR4 membrane fraction; details: 125I-somatostatin-14, human SSTR4 CHO cell membrane fraction, 25° C., 60 minutes
rat astrocyte = test: Inhibitory effect on forskolin-stimulated accumulation of cAMP in rat astrocyte; assay type: cell-based
Method: Inhibitory effect on forskolin-stimulated accumulation of cAMP in rat astrocyte
For measurement of the accumulated intracellular adenosine 3',5'-monophosphate (cAMP), newborn rat astrocytes prepared in accordance with the method of Mc carthy, K. D. et al. [Cell Biology, 85, 890-920, 1980] were proliferated in 24-well plate until they were confluent. Said cells were washed twice with 1 ml of Medium A [Dulbecco's Modified Eagle Medium (DMEM), 20 mM 2-[4-(2-hydroxyethyl)-1-piperazinyl]ethanesulfonic acid (HEPES) (pH 7.5), 0.2% bovine serum albumin and 0.2 mM 3-isobutyl-1-methylxanthine (IBMX)]. The medium A was placed in wells each in a quantity of 400 μl and incubated at 37° C. for an hour. […] The cells were washed twice with 1 ml of Medium A. 500 μl of Medium A and 100 μl of a 20% aqueous perchloric acid solution were placed in each well and left standing for20 minutes at 4° C. to lyse the cells. The lyzate was placed in an Eppendorf's tube and centrifuged (15.000 rpm, 10 minutes). The supernatant was placed in another Eppendorf's tube in quantity of 500 μl and neutralized with 60 mM of a HEPES aqueous solution containing 1.5 M of potassium chloride. The content of cAMP in this extract was determined by the Amersham kit (cAMP EIA system).

[3] = molecular target: T2, human somatostatin receptor protein subtype 2 (SSTR2) (Homo sapiens, UniProt P30874); test: Binding inhibition of 125I-somatostatin-14, IC50, SSTR2 membrane fraction; details: 125I-somatostatin-14, CHO cell membrane fraction, 25° C., 60 minutes
T2 construct: expressed in transfected cells; host or cells: CHO (dhfr-) cells, strain SSTR2-HS5-9

[4] = molecular target: T3, human somatostatin receptor protein subtype 3 (SSTR3) (Homo sapiens, UniProt P32745); test: Binding inhibition of 125I-somatostatin-14, IC50, SSTR3 membrane fraction; details: 125I-somatostatin-14, CHO cell membrane fraction, 25° C., 60 minutes
T3 construct: expressed in transfected cells; host or cells: CHO (dhfr-) cells, strain SSTR3-15-19
T3 sequence (P32745 whole entry): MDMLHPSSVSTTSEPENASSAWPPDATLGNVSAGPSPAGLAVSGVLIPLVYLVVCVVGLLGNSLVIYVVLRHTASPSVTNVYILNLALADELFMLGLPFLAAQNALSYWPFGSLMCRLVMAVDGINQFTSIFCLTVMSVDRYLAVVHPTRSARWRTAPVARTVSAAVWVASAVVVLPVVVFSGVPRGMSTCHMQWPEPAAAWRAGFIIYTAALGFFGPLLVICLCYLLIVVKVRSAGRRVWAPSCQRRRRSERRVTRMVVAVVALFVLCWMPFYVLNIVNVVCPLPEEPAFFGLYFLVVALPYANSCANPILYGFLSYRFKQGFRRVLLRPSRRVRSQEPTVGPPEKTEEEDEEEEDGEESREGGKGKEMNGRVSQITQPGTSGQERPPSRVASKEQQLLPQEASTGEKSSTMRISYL

T2 sequence (P30874 whole entry): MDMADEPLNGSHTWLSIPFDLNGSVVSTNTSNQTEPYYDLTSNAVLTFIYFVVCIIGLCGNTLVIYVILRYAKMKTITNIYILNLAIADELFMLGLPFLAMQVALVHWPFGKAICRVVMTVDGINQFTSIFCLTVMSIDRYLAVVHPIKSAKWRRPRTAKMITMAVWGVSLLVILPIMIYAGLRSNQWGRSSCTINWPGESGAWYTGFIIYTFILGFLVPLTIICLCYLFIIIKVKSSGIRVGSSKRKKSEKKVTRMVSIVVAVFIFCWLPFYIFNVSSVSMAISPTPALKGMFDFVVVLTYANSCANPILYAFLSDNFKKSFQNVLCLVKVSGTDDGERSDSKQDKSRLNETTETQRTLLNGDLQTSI
T1 sequence (P30937 whole entry): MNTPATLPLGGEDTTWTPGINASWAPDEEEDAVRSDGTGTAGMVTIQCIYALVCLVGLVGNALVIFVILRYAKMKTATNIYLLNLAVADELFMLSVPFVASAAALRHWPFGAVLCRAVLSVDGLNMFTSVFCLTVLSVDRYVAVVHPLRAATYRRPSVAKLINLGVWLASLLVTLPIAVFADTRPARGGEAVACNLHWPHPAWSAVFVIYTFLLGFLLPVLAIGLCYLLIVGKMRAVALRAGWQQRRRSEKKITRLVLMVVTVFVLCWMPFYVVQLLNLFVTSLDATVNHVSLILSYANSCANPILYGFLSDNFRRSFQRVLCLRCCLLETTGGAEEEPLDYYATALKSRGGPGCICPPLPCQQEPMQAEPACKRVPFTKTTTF

O=C(CCc1nc(-c2cc3ccccc3o2)no1)N1CC(CN2CCCC2)Cc2ccccc21 (stereo not drawn) [Example 56, 1-[3-(3-(2-Benzofuranyl)-1,2,4-oxadiazol-5-yl]propanoyl]-3-(pirrolidin-1-yl)methyl-1,2,3,4-tetrahydroquinoline oxalate]
pIC50 [1]: 8.00
pIC50 [2]: 8.15
inhibition at 0.01 µM (rat astrocyte; Astrocyte, compound 10 nM, forskolin 10 μM, rat astrocytes, 37° C., an hour, read-out: inhibition of the intracellular accumulation of cAMP at the time of stimulation by forskolin): 43%
agonistic effect on the rat somatostatin receptor (rat astrocyte; conclusion from cAMP test in rat astrocytes): has an agonistic effect

CN(C)CC1Cc2ccccc2N(C(=O)[C@@H](Cc2c[nH]c3ccccc23)NC(=O)N2CCC(n3c(=O)[nH]c4ccccc43)CC2)C1 (stereo partly drawn) [Example 89, 3-(R,S)-(N,N-Dimethylamino)methyl-1-[3-(indol-3-yl)-2-[(R)-4-(2-oxo-2,3-dihydro-1H-benzimidazol-1-yl]piperidinocarbonylamino]propanoyl]-1,2,3,4-tetrahydroquinoline]
pIC50 [3]: 8.52
pIC50 [4]: 8.70

Somatostatin-14: Somatostatin-14, the reference peptide in the rat astrocyte cAMP test [reference compound]
inhibition of the intracellular accumulation of cAMP at the time of stimulation by forskolin (rat astrocyte; compound 10 nM, forskolin 10 μM, rat astrocytes, 37° C., an hour): 83%

CN(C)CC1Cc2ccccc2N(C(=O)[C@@H](Cc2c[nH]c3ccccc23)NC(=O)N2CCN(c3ccccc3)CC2)C1 (stereo partly drawn) [Example 88, 3-(R,S)-(N,N-Dimethylamino)methyl-1-[3-(indol-3-yl)-2-[(R)-(4-phenylpiperazin-1-yl)]carbonylaminolpropanoyl]-1,2,3,4-tetrahydroquinoline]
pIC50 [3]: 8.05
pIC50 [4]: 9.10
